Assay: Inhibition of gp120 in HIV-1 subtype B #11578 harboring pseudotyped Env pWEAUd15.410.5017 infected in human TZM-bl cells assessed as reduction in viral infection pretreated for 30 mins before viral infection and measured after 3 days by luciferase based single cycle infection assay

SMILES	IC50
Cc1nc([C@@H](CN)NC(=O)C(=O)Nc2ccc(Cl)cc2)sc1CO	> 27 µM
Cc1nc([C@H](CN)NC(=O)C(=O)Nc2ccc(Cl)cc2)sc1CO	> 27 µM
Cc1nc([C@@H](CCN)NC(=O)C(=O)Nc2ccc(Cl)cc2)sc1CO	> 15 µM
Cc1nc([C@H](CCN)NC(=O)C(=O)Nc2ccc(Cl)cc2)sc1CO	> 15 µM
NC[C@@H](NC(=O)C(=O)NCc1ccc(Cl)c(F)c1)c1ncc(CO)s1	> 15 µM
NC[C@H](NC(=O)C(=O)NCc1ccc(Cl)c(F)c1)c1ncc(CO)s1	> 15 µM
NC[C@@H](NC(=O)CNCc1ccc(Cl)cc1)c1ncc(CO)s1	> 23.4 µM
NC[C@H](NC(=O)CNCc1ccc(Cl)cc1)c1ncc(CO)s1	> 23.4 µM
NC[C@@H](NC(=O)c1ccc(-c2ccc(Cl)cc2)[nH]1)c1nccs1	3.3 µM
NC[C@H](NC(=O)c1ccc(-c2ccc(Cl)cc2)[nH]1)c1nccs1	0.8 µM
NCCNC(=O)c1ccc(-c2ccc(Cl)c(F)c2)[nH]1	3.8 µM
O=C(NC1CCNCC1)c1ccc(-c2ccc(Cl)c(F)c2)[nH]1	6.6 µM
CC1(C)CC(NC(=O)c2ccc(-c3ccc(Cl)c(F)c3)[nH]2)CC(C)(C)N1	6.2 µM
O=C(NC1(c2nc(CO)cs2)CCNCC1)c1ccc(-c2ccc(C(F)(F)F)cc2)[nH]1	11.4 µM
O=C(N[C@H](CC1CCNCC1)c1nc(CO)cs1)c1ccc(-c2ccc(C(F)(F)F)cc2)[nH]1	12.4 µM
O=C(N[C@@H](CC1CCNCC1)c1nc(CO)cs1)c1ccc(-c2ccc(C(F)(F)F)cc2)[nH]1	8.5 µM
Cc1nc([C@@H](CN)NC(=O)NC(=O)c2ccc(Cl)cc2)sc1CO	> 54 µM
Cc1nc([C@H](CN)NC(=O)NC(=O)c2ccc(Cl)cc2)sc1CO	> 54 µM
NC[C@@H](NC(=O)c1ccc(C2CCCCC2)[nH]1)c1ncc(CO)s1	> 28 µM
NC[C@H](NC(=O)c1ccc(C2CCCCC2)[nH]1)c1ncc(CO)s1	> 28 µM
NC[C@@H](NC(=O)c1ccc(OCC2CCCCC2)cc1)c1ncc(CO)s1	> 15 µM
NC[C@H](NC(=O)c1ccc(OCC2CCCCC2)cc1)c1ncc(CO)s1	> 15 µM
NC[C@@H](NC(=O)c1ccc(NCC2CCCCC2)cc1)c1ncc(CO)s1	> 15 µM
NC[C@H](NC(=O)c1ccc(NCC2CCCCC2)cc1)c1ncc(CO)s1	> 15 µM
NC[C@@H](NC(=O)Cc1ccc(OCC2CCCCC2)cc1)c1ncc(CO)s1	> 25 µM
NC[C@H](NC(=O)Cc1ccc(OCC2CCCCC2)cc1)c1ncc(CO)s1	> 25 µM
Cc1nc([C@@H](CN)NC(=O)c2cc3ccccc3[nH]2)sc1CO	> 60 µM
Cc1nc([C@H](CN)NC(=O)c2cc3ccccc3[nH]2)sc1CO	> 60 µM
Cc1nc([C@@H](CN)NC(=O)c2cc3cc(Cl)ccc3[nH]2)sc1CO	> 40 µM
Cc1nc([C@H](CN)NC(=O)c2cc3cc(Cl)ccc3[nH]2)sc1CO	> 40 µM

From BindingDB's records for doi:10.1016/j.ejmech.2021.113681 (Moscow State University, 2021)
